This data set can be described thus: Caco-2 passive permeability A to B. In kind it is in vitro ADME. As to conditions: Caco-2, A to B. The procedure: The concentration of each compound in the respective samples was determined by LC-MS.
(Passage across Caco-2 layers is used to estimate intestinal permeability.)

For the molecule `CC(C)NCC(O)COc1cccc2ccccc12` (stereo not shown) [Propranolol], the “Apparent passive permeability A to B Paap, Min” value is listed as 18.41 10^-6 cm/s.
